Measurements taken from patent US20090010976A1, “Cosmetic or dermopharmaceutical compositions containing kombucha” (SEDERMA, priority 2002, published 2009).

Test system: serum albumin
Test: Anti-glycation effect: serum albumin incubated with fructose, fluorescent 'AGE' (FFI) formation
Type: biochemical
Conditions: one week
Protocol: Principle: The in vitro model consists in serum albumin incubated with fructose at […]. Glycation is monitored through the formation of fluorescent compounds, generally pentosidines or FFI (furoyl-furanyl-imidazoles.
Protocol: Non-enzymatic glycation between serum albumin and fructose is a slow spontaneous reaction that is accelerated by heat.
In our test, serum albumin (at 2%) and fructose (at 100 mM) were incubated in phosphate buffer medium pH 7.4 at 50° C. for one week. […] The reference (Control) glycation value after one week is determined on the serum albumin and fructose incubation medium. The positive control for glycation inhibition is obtained by incubation in the presence of 0.03% aminoguanidine and the test incubations were conducted in the presence of kombucha at various concentrations.
Results: For each fluorescence value determined, the percentage change on the control is calculated. The results shown in the following table are mean values for n=4 replicates.

N=C(N)NN [aminoguanidine]
% 'AGE' decrease (inhibition of 'AGE' production, FFI compounds) (aminoguanidine 0.03%, serum albumin 2% + fructose 100 mM, pH 7.4, 50° C., mean of n=4): 89 ± 5% | Inhibition of glycation, result in words (serum albumin + fructose, 50° C.): excellent inhibition of glycation
